Assay results: ChEMBL document CHEMBL1201862, “PubChem BioAssay data set” (2004)
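Assay format: 96-well plates, 48-hour exposure. GI50 = concentration required for 50% inhibition of growth.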 Calls of active or inactive are those of the source. Cut-off read from the data, not from the text of the source: active = GI50 up to about 1.1 µM and inactive = higher.

Key:
Assay in all cases: growth of human tumour cells (NCI), 48 h
A498 = tested on: A498
A549 = tested on: A549
CCRF-CEM = tested on: CCRF-CEM
COLO 205 = tested on: COLO 205
HOP-92 = tested on: HOP-92
HT-29 = tested on: HT-29
Malme-3M = tested on: Malme-3M
NCI-H226 = tested on: NCI-H226
NCI-H23 = tested on: NCI-H23
NCI-H522 = tested on: NCI-H522
SK-OV-3 = tested on: SK-OV-3
SN12C = tested on: SN12C
U-251 = tested on: U-251
UACC-257 = tested on: UACC-257
UACC-62 = tested on: UACC-62
HCC 2998 = tested on: HCC 2998
RPMI-8226 = tested on: RPMI-8226
EKVX = tested on: EKVX

Measured: GI50

CC1(C)CC2(C)CC1CC2(O)c1ccccc1 (stereo unspecified)
inactive: A498 > 100 µM | A549 > 100 µM | CCRF-CEM > 100 µM | COLO 205 > 100 µM | HOP-92 42.7 µM | HT-29 > 100 µM | Malme-3M > 100 µM | NCI-H226 > 100 µM | NCI-H23 > 100 µM | NCI-H522 > 100 µM | SK-OV-3 > 100 µM | SN12C > 100 µM | U-251 > 100 µM | UACC-257 > 100 µM | UACC-62 > 100 µM

O=C1CCCCCCCCCCC1CN1CCCC1 (stereo unspecified)
inactive: A498 19.4 µM | A549 43.6 µM | CCRF-CEM 27.4 µM | COLO 205 20.1 µM | HCC 2998 20 µM | HT-29 17.9 µM | Malme-3M 31.6 µM | NCI-H226 15.4 µM | NCI-H23 36.1 µM | NCI-H522 39.3 µM | RPMI-8226 > 100 µM | SK-OV-3 50.9 µM | SN12C 41.1 µM | U-251 26.7 µM | UACC-257 20 µM | UACC-62 17.1 µM

O=C1C(c2c(O)[nH]c3ccc(F)cc23)=Nc2ccccc21
inactive: A549 > 100 µM | CCRF-CEM 28 µM | COLO 205 > 100 µM | EKVX > 100 µM | HCC 2998 > 100 µM | HOP-92 10.9 µM | HT-29 > 100 µM | Malme-3M > 100 µM | NCI-H226 > 100 µM | NCI-H23 73.1 µM | NCI-H522 > 100 µM | RPMI-8226 > 100 µM | SK-OV-3 6.24 µM | SN12C > 100 µM | U-251 13.3 µM | UACC-257 > 100 µM | UACC-62 > 100 µM

CCCCc1c(O)nc(Nc2nc3ccccc3[nH]2)[nH]c1=O
inactive: A498 > 100 µM | A549 > 100 µM | CCRF-CEM > 100 µM | COLO 205 > 100 µM | EKVX > 100 µM | HT-29 > 100 µM | Malme-3M 22.1 µM | NCI-H226 67 µM | NCI-H23 > 100 µM | NCI-H522 57 µM | RPMI-8226 > 100 µM | SK-OV-3 > 100 µM | SN12C > 100 µM | U-251 69.7 µM | UACC-257 > 100 µM | UACC-62 > 100 µM

C1CCCN(NC2=NCCO2)CC1
inactive: A498 > 100 µM | A549 > 100 µM | CCRF-CEM > 100 µM | COLO 205 > 100 µM | EKVX > 100 µM | HCC 2998 > 100 µM | HT-29 > 100 µM | Malme-3M > 100 µM | NCI-H226 > 100 µM | NCI-H23 > 100 µM | NCI-H522 > 100 µM | RPMI-8226 > 100 µM | SN12C > 100 µM | U-251 > 100 µM | UACC-257 > 100 µM | UACC-62 > 100 µM

O=C(/C=C/c1cccs1)c1ccc([N+](=O)[O-])cc1
inactive: A498 > 100 µM | A549 > 100 µM | CCRF-CEM > 100 µM | COLO 205 > 100 µM | EKVX > 100 µM | HCC 2998 > 100 µM | HT-29 > 100 µM | Malme-3M > 100 µM | NCI-H226 78.9 µM | NCI-H23 > 100 µM | RPMI-8226 49.4 µM | SK-OV-3 > 100 µM | SN12C > 100 µM | U-251 > 100 µM | UACC-257 > 100 µM | UACC-62 > 100 µM

Cc1cc(S(=O)(=O)N/C(=N/N)NCCc2ccccc2)c(S)cc1Cl
inactive: A549 36.1 µM | CCRF-CEM 25.1 µM | COLO 205 49.3 µM | EKVX 34.8 µM | HCC 2998 23.2 µM | HT-29 31.6 µM | Malme-3M 22 µM | NCI-H226 25.6 µM | NCI-H522 29.6 µM | RPMI-8226 32.7 µM | SK-OV-3 23.3 µM | SN12C 33.5 µM | U-251 16.6 µM | UACC-257 44.4 µM | UACC-62 18.1 µM

Cc1ccc(-c2nc(-c3cnccn3)n(C3OC(CO)C(O)C(O)C3O)n2)cc1 (stereo unspecified)
inactive: A549 > 100 µM | CCRF-CEM > 100 µM | COLO 205 > 100 µM | EKVX > 100 µM | HCC 2998 > 100 µM | HOP-92 > 100 µM | HT-29 > 100 µM | NCI-H23 > 100 µM | NCI-H522 > 100 µM | RPMI-8226 > 100 µM | SN12C > 100 µM | U-251 > 100 µM | UACC-257 > 100 µM | UACC-62 > 100 µM

N#C/C(=N/Nc1[nH]cnc1C(N)=O)C(=O)Nc1ccccc1
inactive: A549 > 100 µM | CCRF-CEM 3.23 µM | COLO 205 16.5 µM | EKVX 65.5 µM | HCC 2998 9.89 µM | HT-29 48.6 µM | Malme-3M 5.48 µM | NCI-H226 27 µM | NCI-H23 56.8 µM | NCI-H522 7.71 µM | RPMI-8226 2.16 µM | SK-OV-3 4.66 µM | SN12C 4.71 µM | U-251 > 100 µM | UACC-257 76.2 µM | UACC-62 9.18 µM
